What follows are compounds tested on Acinetobacter baumannii ATCC17961 (assay: Antimicrobial susceptibility testing: 90% growth inhibitory concentration (IC90) determination). Conditions: 90% growth inhibitory concentration against Acinetobacter baumannii ATCC17961, Iso-Sensitest broth, OD 600 nm over 16 h; read-out: ATCC 17961 IC90.
Format: cell-based
Protocol: The in vitro antimicrobial activity of the compounds was determined according to the following procedure: The assay used a 10-points Iso-Sensitest broth medium to measure quantitatively the in vitro activity of the compounds against Acinetobacter baumannii ATCC17961. Stock compounds in DMSO were serially twofold diluted (e.g. range from 10 to 0.0195 μM final concentration) in 384 wells microtiter plates and inoculated with 49 μL the bacterial suspension in Iso-Sensitest medium to have a final cell concentration of ˜5×10^(5) CFU/mL in a final volume/well of 50 μL/well. Microtiter plates were incubated at 35±2° C. Bacterial cell growth was determined with the measurement of optical density at λ=600 nm each min over a time course of 16 h. Growth inhibition was calculated during the logarithmic growth of the bacterial cells with determination of the concentration inhibiting 50% (IC50) and 90% (IC90) of the growth. Table 1 provides the 90% growth inhibitory concentrations (IC90) in micromoles per liter of the compounds of present invention obtained against the strain Acinetobacter baumannii ATCC17961.

SMILES	IC90 [nM]
Cn1c(-c2cn(-c3ccc(NCCN)cn3)nc2C(F)(F)F)cnc1C(=O)Nc1ccc(C(=O)N2CCN(C(=O)[C@H]3CC[N@+](CC(=O)O)(CC4CNC4)CC3)CC2)c(Cl)c1 [Example 10, cis-2-[4-[4-[4-[[5-[1-[5-(2-Aminoethylamino)-2-pyridyl]-3-(trifluoromethyl)pyrazol-4-yl]-1-methyl-imidazole-2-carbonyl]amino]-2-chloro-benzoyl]piperazine-1-carbonyl]-1-(azetidin-3-ylmethyl)piperidin-1-ium-1-yl]acetic Acid.1:1 2,2,2-trifluoroacetic Acid.1:1 2,2,2-trifluoroacetate]	170

Same assay, conditions: Acinetobacter baumannii, ATCC17961, 16 h, 90% growth inhibitory concentration against Acinetobacter baumannii ATCC17961, Iso-Sensitest broth, OD 600 nm over 16 h; read-out: ATCC 17961 IC90

SMILES	IC90 [nM]
Cn1c(-c2cn(-c3ccc(N)cn3)nc2C(F)(F)F)cnc1C(=O)Nc1ccc(C(=O)N2CCN(C(=O)CCC[N+](C)(CCCN)CC(=O)O)CC2)c(Cl)c1 (racemic) [Example 65, rac-3-aminopropyl-[4-[4-[4-[[5-[1-(5-amino-2-pyridyl)-3-(trifluoromethyl)pyrazol-4-yl]-1-methyl-imidazole-2-carbonyl]amino]-2-chloro-benzoyl]piperazino]-4-keto-butyl]-(carboxymethyl)-methyl-ammonium. 1:1 2,2,2-trifluoroacetate]	720
Cn1c(-c2cn(-c3ccc(CCN)cn3)nc2C(F)(F)F)cnc1C(=O)Nc1ccc(C(=O)N2CCN(C(=O)C3CC[N+](CC(=O)O)(CC4CNC4)CC3)CC2)c(Cl)c1 (stereo not drawn) [Example 1, 2-[4-[4-[4-[[5-[1-[5-(2-Aminoethyl)-2-pyridyl]-3-(trifluoromethyl)pyrazol-4-yl]-1-methyl-imidazole-2-carbonyl]amino]-2-chloro-benzoyl]piperazine-1-carbonyl]-1-(azetidin-3-ylmethyl)piperidin-1-ium-1-yl]acetic Acid.1:1 2,2,2-trifluoroacetic Acid.1:1 2,2,2-trifluoroacetate]	330
Cn1c(-c2cn(-c3ccc(OCCN)cn3)nc2C(F)(F)F)cnc1C(=O)Nc1ccc(C(=O)N2CCN(C(=O)C3CC[N+](CC(=O)O)(CC4CNC4)CC3)CC2)c(Cl)c1 (stereo not drawn) [Example 2, 2-[4-[4-[4-[[5-[1-[5-(2-aminoethoxy)-2-pyridyl]-3-(trifluoromethyl)pyrazol-4-yl]-1-methyl-imidazole-2-carbonyl]amino]-2-chloro-benzoyl]piperazine-1-carbonyl]-1-(azetidin-3-ylmethyl)piperidin-1-ium-1-yl]acetic acid. 1:1 2,2,2-trifluoroacetic acid. 1:1 2,2,2-trifluoroacetate]	330
Cn1c(-c2cn(-c3ccc(N4CCNCC4)cn3)nc2C(F)(F)F)cnc1C(=O)Nc1ccc(C(=O)N2CCN(C(=O)C3CC[N+](CC(=O)O)(CC4CNC4)CC3)CC2)c(Cl)c1 (stereo not drawn) [Example 3, 2-[1-(azetidin-3-ylmethyl)-4-[4-[2-chloro-4-[[1-methyl-5-[1-(5-piperazino-2-pyridyl)-3-(trifluoromethyl)pyrazol-4-yl]imidazole-2-carbonyl]amino]benzoyl]piperazine-1-carbonyl]piperidin-1-ium-1-yl]acetic acid. 1:1 2,2,2-trifluoroacetic acid. 1:1 2,2,2-trifluoroacetate]	390
CNCCNc1ccc(-n2cc(-c3cnc(C(=O)Nc4ccc(C(=O)N5CCN(C(=O)C6CC[N+](CC(=O)O)(CC7CNC7)CC6)CC5)c(Cl)c4)n3C)c(C(F)(F)F)n2)nc1 (stereo not drawn) [Example 4, 2-[1-(azetidin-3-ylmethyl)-4-[4-[2-chloro-4-[[1-methyl-5-[1-[5-[2-(methylamino)ethylamino]-2-pyridyl]-3-(trifluoromethyl)pyrazol-4-yl]imidazole-2-carbonyl]amino]benzoyl]piperazine-1-carbonyl]piperidin-1-ium-1-yl]acetic acid. 1:1 2,2,2-trifluoroacetate]	390
Cn1c(-c2cn(-c3ccc(NCC4CCNCC4)cn3)nc2C(F)(F)F)cnc1C(=O)Nc1ccc(C(=O)N2CCN(C(=O)C3CC[N+](CC(=O)O)(CC4CNC4)CC3)CC2)c(Cl)c1 (stereo not drawn) [Example 5, 2-[1-(azetidin-3-ylmethyl)-4-[4-[2-chloro-4-[[1-methyl-5-[1-[5-(4-piperidylmethylamino)-2-pyridyl]-3-(trifluoromethyl)pyrazol-4-yl]imidazole-2-carbonyl]amino]benzoyl]piperazine-1-carbonyl]piperidin-1-ium-1-yl]acetic acid. 1:1 2,2,2-trifluoroacetate]	590
Cn1c(-c2cn(-c3ccc(NCC4CC4(F)F)cn3)nc2C(F)(F)F)cnc1C(=O)Nc1ccc(C(=O)N2CCN(C(=O)C3CC[N+](CC(=O)O)(CC4CNC4)CC3)CC2)c(Cl)c1 (stereo not drawn) [Example 6, 2-[1-(azetidin-3-ylmethyl)-4-[4-[2-chloro-4-[[5-[1-[5-[(2,2-difluorocyclopropyl)methylamino]-2-pyridyl]-3-(trifluoromethyl)pyrazol-4-yl]-1-methyl-imidazole-2-carbonyl]amino]benzoyl]piperazine-1-carbonyl]piperidin-1-ium-1-yl]acetic acid. 1:1 2,2,2-trifluoroacetate]	690
Cn1c(-c2cn(-c3ccc(N)nc3)nc2C(F)(F)F)cnc1C(=O)Nc1ccc(C(=O)N2CCN(C(=O)C3CC[N+](CC(=O)O)(CC4CNC4)CC3)CC2)c(Cl)c1 (stereo not drawn) [Example 7, 2-[4-[4-[4-[[5-[1-(6-amino-3-pyridyl)-3-(trifluoromethyl)pyrazol-4-yl]-1-methyl-imidazole-2-carbonyl]amino]-2-chloro-benzoyl]piperazine-1-carbonyl]-1-(azetidin-3-ylmethyl)piperidin-1-ium-1-yl]acetic acid. 1:1 2,2,2-trifluoroacetate]	1480
Cn1c(-c2cn(-c3ccc(NCCN)nc3)nc2C(F)(F)F)cnc1C(=O)Nc1ccc(C(=O)N2CCN(C(=O)C3CC[N+](CC(=O)O)(CC4CNC4)CC3)CC2)c(Cl)c1 (stereo not drawn) [Example 8, 2-[4-[4-[4-[[5-[1-[6-(2-aminoethylamino)-3-pyridyl]-3-(trifluoromethyl)pyrazol-4-yl]-1-methyl-imidazole-2-carbonyl]amino]-2-chloro-benzoyl]piperazine-1-carbonyl]-1-(azetidin-3-ylmethyl)piperidin-1-ium-1-yl]acetic acid. 1:1 2,2,2-trifluoroacetate]	1550
Cn1c(-c2cn(-c3ccc4[nH]ccc4n3)nc2C(F)(F)F)cnc1C(=O)Nc1ccc(C(=O)N2CCN(C(=O)CCC[N+](CCCCN)(CCCCN)CC(=O)O)CC2)c(Cl)c1 [Example 9, Bis(4-aminobutyl)-(carboxymethyl)-[4-[4-[2-chloro-4-[[1-methyl-5-[1-(1H-pyrrolo[3,2-b]pyridin-5-yl)-3-(trifluoromethyl)pyrazol-4-yl]imidazole-2-carbonyl]amino]benzoyl]piperazino]-4-keto-butyl]ammonium.1:1 2,2,2-trifluoroacetic Acid. 1:1 2,2,2-trifluoroacetate]	100
Cn1c(-c2cn(-c3ccc(N)cc3F)nc2C(F)(F)F)cnc1C(=O)Nc1ccc(C(=O)N2CCN(C(=O)CCC[N+](CCCCN)(CCCCN)CC(=O)O)CC2)c(Cl)c1 [Example 11, bis(4-aminobutyl)-[4-[4-[4-[[5-[1-(4-amino-2-fluoro-phenyl)-3-(trifluoromethyl)pyrazol-4-yl]-1-methyl-imidazole-2-carbonyl]amino]-2-chloro-benzoyl]piperazino]-4-keto-butyl]-(carboxymethyl)ammonium. 1:1 2,2,2-trifluoroacetic acid. 1:1 2,2,2-trifluoroacetate]	170
Cn1c(-c2cn(-c3ccc(NCCN)cn3)nc2C(F)(F)F)cnc1C(=O)Nc1ccc(C(=O)N2CCN(C(=O)C3CC[N+](CC(=O)O)(CC4CNC4)CC3)CC2)c(Cl)c1 (stereo not drawn) [Example 12, 2-[4-[4-[4-[[5-[1-[5-(2-aminoethylamino)-2-pyridyl]-3-(trifluoromethyl)pyrazol-4-yl]-1-methyl-imidazole-2-carbonyl]amino]-2-chloro-benzoyl]piperazine-1-carbonyl]-1-(azetidin-3-ylmethyl)piperidin-1-ium-1-yl]acetic acid. 1:1 2,2,2-trifluoroacetic acid. 1:1 2,2,2-trifluoroacetate]	180
Cn1c(-c2cn(-c3ccc4[nH]ccc4n3)nc2C(F)(F)F)cnc1C(=O)Nc1ccc(C(=O)N2CCN(C(=O)CCC[N+](CCCN)(CCCN)CC(=O)O)CC2)c(Cl)c1 [Example 13, bis(3-aminopropyl)-(carboxymethyl)-[4-[4-[2-chloro-4-[[1-methyl-5-[1-(1H-pyrrolo[3,2-b]pyridin-5-yl)-3-(trifluoromethyl)pyrazol-4-yl]imidazole-2-carbonyl]amino]benzoyl]piperazino]-4-keto-butyl]ammonium. 1:1 2,2,2-trifluoroacetic acid. 1:1 2,2,2-trifluoroacetate]	200
Cn1c(-c2cn(-c3cc4[nH]ccc4cn3)nc2C(F)(F)F)cnc1C(=O)Nc1ccc(C(=O)N2CCN(C(=O)[C@H]3CC[N@+](CC(=O)O)(CC4CNC4)CC3)CC2)c(Cl)c1 [Example 14, cis-2-[1-(azetidin-3-ylmethyl)-4-[4-[2-chloro-4-[[1-methyl-5-[1-(1H-pyrrolo[3,2-c]pyridin-6-yl)-3-(trifluoromethyl)pyrazol-4-yl]imidazole-2-carbonyl]amino]benzoyl]piperazine-1-carbonyl]piperidin-1-ium-1-yl]acetic acid. 1:1 2,2,2-trifluoroacetate]	200

— patent US20250179066A1, “ZWITTERIONIC ANTIBACTERIAL COMPOUNDS” (Hoffmann-La Roche Inc., priority 2022, published 2025)
